# Data published in ChEMBL document CHEMBL4418494, “Small molecule inhibitors of AGBL2” (2015).
# Activity calls are given as the source filed them. No cut-off for these calls is given here.
# Target: T1, Cytosolic carboxypeptidase 2 (Homo sapiens) (UniProt Q5U5Z8)
# T1 sequence (whole entry): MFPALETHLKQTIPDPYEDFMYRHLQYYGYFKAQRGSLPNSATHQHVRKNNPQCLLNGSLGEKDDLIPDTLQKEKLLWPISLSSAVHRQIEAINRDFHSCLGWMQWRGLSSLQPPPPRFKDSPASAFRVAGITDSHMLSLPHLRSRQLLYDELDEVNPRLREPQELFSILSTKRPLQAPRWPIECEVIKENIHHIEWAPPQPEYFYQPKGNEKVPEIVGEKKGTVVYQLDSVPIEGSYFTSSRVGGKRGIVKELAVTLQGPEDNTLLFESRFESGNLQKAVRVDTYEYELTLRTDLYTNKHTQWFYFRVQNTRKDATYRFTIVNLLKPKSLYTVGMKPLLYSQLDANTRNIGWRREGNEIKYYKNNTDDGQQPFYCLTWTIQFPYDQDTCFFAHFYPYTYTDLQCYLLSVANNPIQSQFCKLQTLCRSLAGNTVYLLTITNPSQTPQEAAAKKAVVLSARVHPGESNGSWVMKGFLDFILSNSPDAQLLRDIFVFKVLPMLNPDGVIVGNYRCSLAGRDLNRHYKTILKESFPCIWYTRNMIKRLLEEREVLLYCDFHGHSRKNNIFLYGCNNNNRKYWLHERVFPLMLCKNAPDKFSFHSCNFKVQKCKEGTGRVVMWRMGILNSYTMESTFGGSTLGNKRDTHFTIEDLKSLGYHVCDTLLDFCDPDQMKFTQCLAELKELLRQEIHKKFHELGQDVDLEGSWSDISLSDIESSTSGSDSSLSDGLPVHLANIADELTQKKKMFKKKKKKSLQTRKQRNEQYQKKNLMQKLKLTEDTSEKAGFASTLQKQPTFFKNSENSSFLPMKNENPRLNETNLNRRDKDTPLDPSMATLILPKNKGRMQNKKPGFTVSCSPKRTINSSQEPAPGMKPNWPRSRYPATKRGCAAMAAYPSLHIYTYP
# Experiment: Inhibition of AGBL2 (unknown origin) expressed in HEK293 stably expressing TIG1 assessed as reduction in de-tyrosinated to tyrosinated ratio of alpha-tubulin at 1 uM incubated for 2 hrs by Western blotting analysis relative to control
# Type: cell-based
row,inhibition (active/inactive call),Structure (SMILES)
1,Active,Cc1cc(C(F)(F)F)cnc1CC(=O)O
2,Active,Cc1cc(F)cnc1CC(=O)O
3,Active,O=C(O)Cc1cccc(C(=O)Nc2ccc3c(c2)OCO3)c1
4,Active,CC(C)c1ccc(Sc2ccc(F)cc2CC(=O)O)cc1
